Data reported in patent US10155004B2, “17-hydroxy-17-pentafluoroethyl-estra-4,9(10)-dien-11-aryl derivatives, method of production thereof and use thereof for the treatment of diseases” (BAYER INTELLECTUAL PROPERTY GMBH, priority 2009, dated 2018).

Experiments:
[1] = molecular target: T1, human progesterone receptor A (Homo sapiens, UniProt P06401); assay: Progesterone receptor-antagonistic action in stably transfected SK-N-MC cells, MTV-LUC reporter (PR-A); type: cell-based; conditions: antagonistic efficacy vs 0.1 nmol/l promegestone
T1 construct: expressed in transfected cells; host or cells: SK-N-MC human neuroblastoma cells, stably transfected
T1 sequence (P06401 1-769 isoform P06401-2): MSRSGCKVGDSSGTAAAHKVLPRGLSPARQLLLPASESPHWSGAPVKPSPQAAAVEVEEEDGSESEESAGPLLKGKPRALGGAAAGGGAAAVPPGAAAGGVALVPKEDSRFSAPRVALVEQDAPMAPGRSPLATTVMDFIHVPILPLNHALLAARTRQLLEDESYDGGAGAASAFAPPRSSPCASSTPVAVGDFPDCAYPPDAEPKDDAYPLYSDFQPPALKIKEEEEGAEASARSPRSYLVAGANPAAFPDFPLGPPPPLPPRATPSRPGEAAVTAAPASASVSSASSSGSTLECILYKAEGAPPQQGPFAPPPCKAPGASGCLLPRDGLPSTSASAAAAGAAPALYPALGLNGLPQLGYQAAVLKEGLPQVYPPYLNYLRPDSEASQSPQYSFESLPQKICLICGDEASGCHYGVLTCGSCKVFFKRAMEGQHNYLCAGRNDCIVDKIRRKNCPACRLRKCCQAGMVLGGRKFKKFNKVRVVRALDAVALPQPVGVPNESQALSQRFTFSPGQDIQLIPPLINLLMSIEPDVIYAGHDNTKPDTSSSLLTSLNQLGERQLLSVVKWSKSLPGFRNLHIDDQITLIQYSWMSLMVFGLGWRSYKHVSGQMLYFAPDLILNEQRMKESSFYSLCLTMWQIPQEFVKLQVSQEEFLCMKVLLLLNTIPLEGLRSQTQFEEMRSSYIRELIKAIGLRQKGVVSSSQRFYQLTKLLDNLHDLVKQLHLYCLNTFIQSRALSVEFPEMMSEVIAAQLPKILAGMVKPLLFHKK
Protocol: EXAMPLE 16 PROGESTERONE RECEPTOR-ANTAGONISTIC ACTION IN STABLE TRANSFECTANTS OF HUMAN NEUROBLASTOMA CELLS (SK-N-MC CELLS) WITH THE HUMAN PROGESTERONE A OR PROGESTERONE B RECEPTOR AND AN MTV-LUC REPORTER CONSTRUCT
SK-N-MC cells (human neuroblastoma cells), which have been stably transfected with plasmids, which express the human progesterone receptor B (pRChPR-B-neo) or the human progesterone receptor A (pRChPR-A-neo) and a reporter construct (pMMTV-LUC), were incubated for 24 hours either in the absence (negative control) or in the presence of increasing amounts of the respective test compound (0.01 nmol/l, 0.1 nmol/l 1 nmol/l, 10 nmol/l, 100 nmol/l and 1 μmol/l), in order to determine the agonistic efficacy. As positive control of reporter gene induction, the cells were treated with the synthetic gestagen promegestone (0.01 nmol/l, 0.1 nmol/l, 1 nmol/l, 10 nmol/l, 100 nmol/l and 1 μmol/l). For determination of the antagonistic activity, the cells were treated with 0.1 nmol/1 promegestone and additionally with increasing amounts of the respective test compound (0.01 nmol/l, 0.1 nmol/l, 1 nmol/l, 10 nmol/l, 100 nmol/l and 1 μmol/l). The activity of the LUC reporter gene (LUC=luciferase) was determined in the cell lysates and was measured as RLU (relative light units). All measured values are given as percentage efficacy and as EC50 or IC50 concentrations.
11β-(4-Acetylphenyl)-20,20,21,21,21-pentafluoro-17-hydroxy-19-nor-17α-pregna-4,9-dien-3-one and 20,20,21,21,21-pentafluoro-17-hydroxy-11β-[4-(hydroxyacetyl)phenyl]-19-nor-17α-pregna-4,9-dien-3-one, very potent and therefore preferred examples from WO98/34947 and WO2008/058767, were tested as comparative compounds along with the test compound.

[2] = Metabolic stability in human liver microsomes (HLM); type: in vitro ADME; conditions: from HLM half-life, well-stirred model, phase I reactions; 1 μM, 0.5 mg/ml protein
Protocol: EXAMPLE 18 METABOLIC STABILITY OF (11β,17β)-17-HYDROXY-11[4-(METHYLSULPHONYL)PHENYL]-17-(PENTAFLUOROETHYL)ESTRA-4,9-DIEN-3-ONE AND (11β,17β)-17-HYDROXY-11-[4′-(METHYLSULPHONYL)-BIPHENYL-4-YL]-17-(PENTAFLUOROETHYL)ESTRA-4,9-DIEN-3-ONE IN HUMAN LIVER MICROSOMES (HLM)
Isolated human liver microsomes (HLM) were used for assessing the metabolic stability of compounds of general formula I.
Incubations were carried out with 2.4 ml of HLM solution (0.5 mg/ml protein content), 30 μl of the test compound (final concentration 1 μM) and 0.6 ml of the cofactor mixture (=NADPH-generating system of 3 IU glucose-6-phosphate dehydrogenase, 14.6 mg glucose-6-phosphate, 1.2 mg NADP) at 37° C. in 100 mM phosphate buffer at pH 7.4. Samples are taken at 6 time points (2-60 min), precipitated with an equal volume of methanol and the recovery of the test substances used in the supernatant is determined by LC-MS/MS analysis. The intrinsic clearance of the substance in the liver microsome preparation can be calculated from the half-life found for the breakdown of the substance. Based on this, together with various physiological characteristics according to the well-stirred model, it is then possible to predict a (metabolic) in vivo clearance with respect to phase I reactions. […]

[3] = test system: cardiovascular system; assay: Action on the cardiovascular system (incl. ECG) of anaesthetized beagle dogs; type: in vivo
Protocol: EXAMPLE 20 INVESTIGATION OF THE ACTION ON THE CARDIOVASCULAR SYSTEM (INCL. ECG) OF ANAESTHETIZED BEAGLE DOGS
(11β,17β)-17-Hydroxy-11-[4-(methylsulphonyl)phenyl]-17-(pentafluoroethy)estra-4,9-dien-3-one, dissolved in a mixture of PEG 400 and HP-β-CD (60% PEG 400, 40% HP-β-CD 30%), was administered intravenously to anaesthetized female beagle dogs. The body weight of the dogs was >9 kg. 3 dogs were treated per group and additionally 3 dogs in the control group. 0.1; 0.33 and 1 mg/kg of the substance was administered in 3 consecutive infusions, in each case over a period of 30 minutes. The maximum amount of vehicle was 0.4 ml per kg for 30 minutes. Blood samples were taken from the animals at various time points. The highest plasma level (average for all 3 animals) was 1650 ng/ml at the end of the third infusion.

SMILES: C[C@]12C[C@H](c3ccc(S(C)(=O)=O)cc3)C3=C4CCC(=O)C=C4CC[C@H]3[C@@H]1CC[C@@]2(O)C(F)(F)C(F)(F)F [Example 4, (11β,17β)-17-Hydroxy-11-[4-(methylsulphonyl)phenyl]-17-(pentafluoroethyl)estra-4,9-dien-3-one]
- Progesterone receptor A (PR-A) Efficacy [1]: 100%
- (metabolic) in vivo clearance in humans predicted [2]: 0.1 L/h/kg
- highest plasma level (average for all 3 animals) ([3]; end of third infusion, i.v. 0.1, 0.33 and 1 mg/kg consecutive 30 minute infusions): 1650 ng/mL
- effects on the cardiovascular system (pulmonary artery pressure, systemic arterial blood pressure, heart rate, ECG) ([3]; i.v. 0.1, 0.33 and 1 mg/kg, in comparison with the control): no biologically relevant effects
